Tests used:
[1] = test system: Corn; assay: Greenhouse spray, phytotoxicity and mortality over time; format: in vivo; settings: for Mortality: plants died of 8;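 on Phyto (Phytotoxicity, 0–10 rating scale): 0 means no damage and 10 means plant death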
Experimental: (§1) Herbicidal treatments were applied using a spray chamber fitted with a TeeJet 8006E flat fan nozzle (available from Spraying Systems Co., Wheaton, Ill.), calibrated to spray at a volume of 60 gpa at 40 psi. Treatment solutions were freshly prepared for each experiment. […] M. et al, J. Wiley and Sons, 1975, pp. 119–120, 218.
(§2) In a greenhouse facility four plant species were grown in 5.5 cm square pots using a potting soil mix comprising peat, vermiculite, sand and 4-10-10 fertilizer. Water soluble 20-20-20 fertilizer was used as a supplement for the plants as required. The plant species used were corn, oats, radish and morningglory. The plants were selected for use based on uniformity and quality. The corn plants used were in the 3 to 4 leaf stage and two plants were present in each pot. The oats used were in the 2 to 4 leaf stage and four plants were present per pot. The radish plants used were in the 3 to 5 leaf stage and one plant was used per pot. The morningglory were in the 2 to 4 leaf stage with one plant per pot. After spraying with a herbicidal formulation, the pots were arranged in a randomized complete block design in sub-irrigated watering trays, and included a water-treated control treatment. Four replicates (pots) were used for each treatment.
(§3) Herbicidal treatments were applied and recorded as in Example 1.

[2] = test system: Morningglory; assay: as above; format: in vivo; settings: for Mortality: plants died of 4;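 on Phyto (Phytotoxicity, 0–10 rating scale): 0 means no damage and 10 means plant death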
Experimental: as §1, §2, §3

SMILES: CCCCCCCCC(=O)[O-].[Na+] [Sodium pelargonate]
- Phyto (Phytotoxicity, 0–10 rating scale) ([1]; 2 Days after Treatment): 0
- Mortality ([1]; 2 Days after Treatment): 0
- Phyto (Phytotoxicity, 0–10 rating scale) ([1]; 4 Days after Treatment): 0
- Mortality ([1]; 4 Days after Treatment): 0
- Phyto (Phytotoxicity, 0–10 rating scale) ([1]; 7 Days after Treatment): 0
- Mortality ([1]; 7 Days after Treatment): 0
- Phyto (Phytotoxicity, 0–10 rating scale) ([1]; 9 Days after Treatment, listed as 0.1% C9 Na^+ Salt): 0
- Phyto (Phytotoxicity, 0–10 rating scale) ([1]; 9 Days after Treatment, listed as 0.5% C9 Na^+ Salt): 0.5
- Phyto (Phytotoxicity, 0–10 rating scale) ([1]; 9 Days after Treatment, listed as 1.0% C9 Na^+ Salt): 0
- Mortality ([1]; 9 Days after Treatment): 0
- Phyto (Phytotoxicity, 0–10 rating scale) ([1]; 11 Days after Treatment, listed as 0.1% C9 Na^+ Salt): 0
- Phyto (Phytotoxicity, 0–10 rating scale) ([1]; 11 Days after Treatment, listed as 0.5% C9 Na^+ Salt): 0.5
- Phyto (Phytotoxicity, 0–10 rating scale) ([1]; 11 Days after Treatment, listed as 1.0% C9 Na^+ Salt): 0
- Mortality ([1]; 11 Days after Treatment): 0
- Phyto (Phytotoxicity, 0–10 rating scale) ([1]; 16 Days after Treatment, listed as 0.1% C9 Na^+ Salt): 0.25
- Phyto (Phytotoxicity, 0–10 rating scale) ([1]; 16 Days after Treatment, listed as 0.5% C9 Na^+ Salt): 1.0
- Phyto (Phytotoxicity, 0–10 rating scale) ([1]; 16 Days after Treatment, listed as 1.0% C9 Na^+ Salt): 0.25
- Mortality ([1]; 16 Days after Treatment): 0
- Phyto (Phytotoxicity, 0–10 rating scale) ([1]; 18 Days after Treatment, listed as 0.1% C9 Na^+ Salt): 1.0
- Phyto (Phytotoxicity, 0–10 rating scale) ([1]; 18 Days after Treatment, listed as 0.5% C9 Na^+ Salt): 1.0
- Phyto (Phytotoxicity, 0–10 rating scale) ([1]; 18 Days after Treatment, listed as 1.0% C9 Na^+ Salt): 0.25
- Mortality ([1]; 18 Days after Treatment): 0
- Phyto (Phytotoxicity, 0–10 rating scale) ([1]; 21 Days after Treatment, listed as 0.1% C9 Na^+ Salt): 1.0
- Phyto (Phytotoxicity, 0–10 rating scale) ([1]; 21 Days after Treatment, listed as 0.5% C9 Na^+ Salt): 1.0
- Phyto (Phytotoxicity, 0–10 rating scale) ([1]; 21 Days after Treatment, listed as 1.0% C9 Na^+ Salt): 0.5
- Mortality ([1]; 21 Days after Treatment): 0
- Phyto (Phytotoxicity, 0–10 rating scale) ([1]; 23 Days after Treatment, listed as 0.1% C9 Na^+ Salt): 1.0
- Phyto (Phytotoxicity, 0–10 rating scale) ([1]; 23 Days after Treatment, listed as 0.5% C9 Na^+ Salt): 1.0
- Phyto (Phytotoxicity, 0–10 rating scale) ([1]; 23 Days after Treatment, listed as 1.0% C9 Na^+ Salt): 0.75
- Mortality ([1]; 23 Days after Treatment): 0
- Phyto (Phytotoxicity, 0–10 rating scale) ([1]; 25 Days after Treatment): 1.0
- Mortality ([1]; 25 Days after Treatment): 0
- Phyto (Phytotoxicity, 0–10 rating scale) ([1]; 28 Days after Treatment): 0
- Mortality ([1]; 28 Days after Treatment): 0
- Phyto (Phytotoxicity, 0–10 rating scale) ([1]; 30 Days after Treatment): 0
- Mortality ([1]; 30 Days after Treatment): 0
- Phyto (Phytotoxicity, 0–10 rating scale) ([1]; 32 Days after Treatment): 0
- Mortality ([1]; 32 Days after Treatment): 0
- Phyto (Phytotoxicity, 0–10 rating scale) ([1]; 35 Days after Treatment): 0
- Mortality ([1]; 35 Days after Treatment): 0
- Phyto (Phytotoxicity, 0–10 rating scale) ([1]; 42 Days after Treatment): 0
- Mortality ([1]; 42 Days after Treatment): 0
- Phyto (Phytotoxicity, 0–10 rating scale) ([1]; 46 Days after Treatment): 0
- Mortality ([1]; 46 Days after Treatment): 0
- Phyto (Phytotoxicity, 0–10 rating scale) ([1]; 57 Days after Treatment): 0
- Mortality ([1]; 57 Days after Treatment): 0
- Phyto (Phytotoxicity, 0–10 rating scale) ([2]; 2 Days after Treatment): 0
- Mortality ([2]; 2 Days after Treatment): 0
- Phyto (Phytotoxicity, 0–10 rating scale) ([2]; 4 Days after Treatment): 0
- Mortality ([2]; 4 Days after Treatment): 0
- Phyto (Phytotoxicity, 0–10 rating scale) ([2]; 7 Days after Treatment): 0
- Mortality ([2]; 7 Days after Treatment): 0
- Phyto (Phytotoxicity, 0–10 rating scale) ([2]; 9 Days after Treatment): 0
- Mortality ([2]; 9 Days after Treatment): 0
- Phyto (Phytotoxicity, 0–10 rating scale) ([2]; 11 Days after Treatment): 0
- Mortality ([2]; 11 Days after Treatment): 0
- Phyto (Phytotoxicity, 0–10 rating scale) ([2]; 16 Days after Treatment): 0
- Mortality ([2]; 16 Days after Treatment): 0
- Phyto (Phytotoxicity, 0–10 rating scale) ([2]; 18 Days after Treatment): 0
- Mortality ([2]; 18 Days after Treatment): 0
- Phyto (Phytotoxicity, 0–10 rating scale) ([2]; 21 Days after Treatment): 0
- Mortality ([2]; 21 Days after Treatment): 0
- Phyto (Phytotoxicity, 0–10 rating scale) ([2]; 23 Days after Treatment): 0
- Mortality ([2]; 23 Days after Treatment): 0
- Phyto (Phytotoxicity, 0–10 rating scale) ([2]; 25 Days after Treatment): 0
- Mortality ([2]; 25 Days after Treatment): 0
- Phyto (Phytotoxicity, 0–10 rating scale) ([2]; 28 Days after Treatment): 0
- Mortality ([2]; 28 Days after Treatment): 0
- Phyto (Phytotoxicity, 0–10 rating scale) ([2]; 30 Days after Treatment): 0
- Mortality ([2]; 30 Days after Treatment): 0
- Phyto (Phytotoxicity, 0–10 rating scale) ([2]; 32 Days after Treatment): 0
- Mortality ([2]; 32 Days after Treatment): 0
- Phyto (Phytotoxicity, 0–10 rating scale) ([2]; 35 Days after Treatment): 0
- Mortality ([2]; 35 Days after Treatment): 0

Source: US6930075B1, “Fatty acid-based herbicidal composition” (priority 1990, dated 2005)
